Experimental findings from US9902725B2, “Heterocyclic derivatives as RORgamma modulators” (GENFIT, priority 2014, dated 2018) are described below.

In the experiment the target is T1, RORγt ligand-binding domain (RORγt-LBD) (Homo sapiens, UniProt P51449).
T1 construct: 20 nM recombinantly expressed RORγ-LBD fused to GST
T1 sequence (P51449 269-508 limits assumed): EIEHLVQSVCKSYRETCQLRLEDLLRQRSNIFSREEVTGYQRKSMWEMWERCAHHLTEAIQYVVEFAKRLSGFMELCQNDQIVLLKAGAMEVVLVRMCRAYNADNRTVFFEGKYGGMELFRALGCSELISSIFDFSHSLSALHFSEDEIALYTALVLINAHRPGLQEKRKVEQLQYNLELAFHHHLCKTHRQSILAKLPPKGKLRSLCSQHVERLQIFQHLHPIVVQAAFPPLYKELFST
In words: Time-resolved FRET (TR-FRET) RORγt coactivator assay. It is filed as biochemical. The following applies: GST-RORγ-LBD, biotinylated RIP140 peptide, coactivator displacement. Background: Time-resolved FRET reads energy transfer from a long-lived donor to a nearby acceptor.
`Cc1cccc(CC(NC(=O)Cc2ccc3[nH]cc(CCC(=O)O)c3c2)c2ccccc2N2CCCCC2)c1` (stereo not drawn) [compound 176, 3-[5-({[2-(3-methylphenyl)-1-[2-(piperidin-1-yl)phenyl]ethyl]carbamoyl}methyl)-1H-indol-3-yl]propanoic acid] showed an IC50 of 1000 to 10000 nM.

The compound `CC(C)CC(NC(=O)Nc1cnc2[nH]cc(CCC(=O)O)c2c1)c1ccccc1N1CCCCC1` (stereo not drawn) [compound 178, 3-{5-[({3-methyl-1-[2-(piperidin-1-yl)phenyl]butyl}carbamoyl)amino]-1H-pyrrolo[2,3-b]pyridin-3-yl}propanoic acid] had an IC50 of 10000 to 30000 nM.

Regarding `O=C(O)CCc1c[nH]c2ccc(CC(=O)NC(c3ccccc3)c3ccccc3N3CCC(F)(F)CC3)cc12` (stereo not drawn) [compound 180, 3-{5-[({[2-(4,4-difluoropiperidin-1-yl)phenyl](phenyl)methyl}carbamoyl)methyl]-1H-indol-3-yl}propanoic acid], the IC50 was in the range of 1000 to 10000 nM.

Compound `CC(C)CC(NC(=O)Cc1ccc2[nH]cc(CCC(=O)O)c2c1)c1ccc(Br)cc1N1CCCC1` (stereo not drawn) [compound 182, 3-{5-[({1-[4-bromo-2-(pyrrolidin-1-yl)phenyl]-3-methylbutyl}carbamoyl)methyl]-1H-indol-3-yl}propanoic acid] came in with an IC50 of under 1000 nM.

Compound `Cc1ccc(C(NC(=O)Cc2ccc3[nH]cc(CCC(=O)O)c3c2)c2ccccc2)c(N)c1` (stereo not drawn) [compound 184, 3-[5-({[(2-amino-4-methylphenyl)(phenyl)methyl]carbamoyl}methyl)-1H-indol-3-yl]propanoic acid] registered an IC50 of 1000 to 10000 nM.

For the compound `O=C(O)CCc1c[nH]c2ccc(CC(=O)NC(CC3CCOCC3)c3ccccc3N3CCCCC3)cc12` (stereo not drawn) [compound 190, 3-[5-({[2-(oxan-4-yl)-1-[2-(piperidin-1-yl)phenyl]ethyl]carbamoyl}methyl)-1H-indol-3-yl]propanoic acid], the 50% inhibitory concentration (IC50) is under 1000 nM.

On to `CC(C)CC(NC(=O)Cc1ccc2[nH]cc(CC(=O)O)c2c1)c1ccccc1N1CCCCC1` (stereo not drawn) [compound 194, 2-{5-[({3-methyl-1-[2-(piperidin-1-yl)phenyl]butyl}carbamoyl)methyl]-1H-indol-3-yl}acetic acid], for which the IC50 is 1000 to 10000 nM.

As for `O=C(O)CCc1c[nH]c2ccc(CC(=O)NC(c3ccccc3)c3ccccc3N3CCOCC3)cc12` (stereo not drawn) [compound 196, 3-{5-[({[2-(morpholin-4-yl)phenyl](phenyl)methyl}carbamoyl)methyl]-1H-indol-3-yl}propanoic acid], the half-inhibitory concentration (IC50) lay in the range of 1000 to 10000 nM.

`CNc1cc(C)ccc1C(NC(=O)Cc1ccc2[nH]cc(CCC(=O)O)c2c1)c1ccccc1` (stereo not drawn) [compound 204, 3-{5-[({[4-methyl-2-(methylamino)phenyl](phenyl)methyl}carbamoyl)methyl]-1H-indol-3-yl}propanoic acid] returned an IC50 of under 1000 nM.

As to `O=C(Cc1ccc2[nH]cc(C(=O)O)c2c1)NC(c1ccccc1)c1ccccc1N1CCCCC1` (stereo not drawn) [compound 206, 1-(2-{[2-(3-carboxy-1H-indol-5-yl)acetamido](phenyl)methyl}phenyl)piperidin-1-ium chloride], the IC50 lay within 1000 to 10000 nM.

Compound `Cc1ccc(C(NC(=O)Cc2ccc3[nH]cc(C(=O)O)c3c2)c2ccccc2)c(Br)c1` (stereo not drawn) [compound 207, 5-({[(2-bromo-4-methylphenyl)(phenyl)methyl]carbamoyl}methyl)-1H-indole-3-carboxylic acid] showed an IC50 of 1000 to 10000 nM.

Compound `O=C(O)CCC(=O)c1c[nH]c2ccc(CC(=O)NC(c3ccccc3)c3ccccc3N3CCCCC3)cc12` (stereo not drawn) [compound 213, 4-oxo-4-{5-[({phenyl[2-(piperidin-1-yl)phenyl]methyl}carbamoyl)methyl]-1H-indol-3-yl}butanoic acid] gave an IC50 of under 1000 nM.

The compound `O=C(O)CCCC(=O)c1c[nH]c2ccc(CC(=O)NC(c3ccccc3)c3ccccc3N3CCCCC3)cc12` (stereo not drawn) [compound 215, 5-oxo-5-{5-[({phenyl[2-(piperidin-1-yl)phenyl]methyl}carbamoyl)methyl]-1H-indol-3-yl}pentanoic acid] had a 50% inhibitory concentration (IC50) of under 1000 nM.

Turning to `Cc1ccc(C(NC(=O)Cc2ccc3[nH]cc(CCC(=O)O)c3c2)c2ccccc2)c2[nH]ccc12` (stereo not drawn) [compound 229, 3-[5-({[(4-methyl-1H-indol-7-yl)(phenyl)methyl]carbamoyl}methyl)-1H-indol-3-yl]propanoic acid], the IC50 lay within 1000 to 10000 nM.

Turning to `N=C(N)NC(=O)CCc1c[nH]c2ccc(CC(=O)NC(c3ccccc3)c3ccccc3N3CCCCC3)cc12` (stereo not drawn) [compound 235, 1-{2-[(2-{3-[2-(carbamimidoylcarbamoyl)ethyl]-1H-indol-5-yl}acetamido)(phenyl)methyl]phenyl}piperidin-1-ium chloride], the IC50 lay in the range of 1000 to 10000 nM.

In turn, `O=C(O)CCc1n[nH]c2ccc(CC(=O)NC(c3ccccc3)c3ccccc3N3CCCCC3)cc12` (stereo not drawn) [compound 237, 3-{5-[({phenyl[2-(piperidin-1-yl)phenyl]methyl}carbamoyl)methyl]-1H-indazol-3-yl}propanoic acid] gave an IC50 of under 1000 nM.

Compound `CC(C)CC(NC(=O)Cc1ccc2[nH]cc(CCC(=O)O)c2c1)c1ccccc1OC(C)C` (stereo not drawn) [compound 241, 3-{5-[({3-methyl-1-[2-(propan-2-yloxy)phenyl]butyl}carbamoyl)methyl]-1H-indol-3-yl}propanoic acid] came in with a concentration for half-maximal inhibition (IC50) of under 1000 nM.

Take `CCOc1ccccc1C(CC(C)C)NC(=O)Cc1ccc2[nH]cc(CCC(=O)O)c2c1` (stereo not drawn) [compound 243, 3-[5-({[1-(2-ethoxyphenyl)-3-methylbutyl]carbamoyl}methyl)-1H-indol-3-yl]propanoic acid]: the IC50 was under 1000 nM.

As for `CC(C)CCC(NC(=O)Cc1ccc2[nH]cc(CCC(=O)O)c2c1)c1ccccc1N1CCCCC1` (stereo not drawn) [compound 245, 3-{5-[({4-methyl-1-[2-(piperidin-1-yl)phenyl]pentyl}carbamoyl)methyl]-1H-indol-3-yl}propanoic acid], the concentration for half-maximal inhibition (IC50) is under 1000 nM.

`CCOc1ccc(C(NC(=O)Cc2ccc3[nH]cc(CCC(=O)O)c3c2)c2ccccc2)c(OCC)c1` (stereo not drawn) [compound 247, 3-[5-({[(2,4-diethoxyphenyl)(phenyl)methyl]carbamoyl}methyl)-1H-indol-3-yl]propanoic acid]: the IC50 is under 1000 nM.

With `Cc1ccc(C(NC(=O)Cc2ccc3[nH]cc(CCC(=O)O)c3c2)c2ccccc2)c(N2CCCCCC2)c1` (stereo not drawn) [compound 251, 3-{5-[({[2-(azepan-1-yl)-4-methylphenyl](phenyl)methyl}carbamoyl)methyl]-1H-indol-3-yl}propanoic acid], the IC50 was under 1000 nM.

On to `Cc1cc(C(NC(=O)Cc2ccc3[nH]cc(CCC(=O)O)c3c2)c2ccccc2N2CCCCC2)oc1C` (stereo not drawn) [compound 253, 3-[5-({[(4,5-dimethylfuran-2-yl)[2-(piperidin-1-yl)phenyl]methyl]carbamoyl}methyl)-1H-indol-3-yl]propanoic acid], for which the IC50 is under 1000 nM.

Consider `Cc1ccc(C(NC(=O)Cc2ccc3[nH]cc(CCC(=O)O)c3c2)c2ccccc2OC(C)C)o1` (stereo not drawn) [compound 255, 3-[5-({[(5-methylfuran-2-yl)[2-(propan-2-yloxy)phenyl]methyl]carbamoyl}methyl)-1H-indol-3-yl]propanoic acid], for which the IC50 was under 1000 nM.

In the case of `CON(C)C(=O)Cc1c[nH]c2ccc(CC(=O)NC(c3ccccc3)c3ccccc3N3CCCCC3)cc12` (stereo not drawn) [compound 258, N-methoxy-N-methyl-2-{5-[({phenyl[2-(piperidin-1-yl)phenyl]methyl}carbamoyl)methyl]-1H-indol-3-yl}acetamide], the IC50 is under 1000 nM.

As a reminder, the IC50 is the point on the concentration scale where inhibition reaches its midpoint. High values mean a need for much substance, low ones inhibition by little substance.
